Consider two compounds from BindingDB's records for doi:10.1021/jm970110p (Universit&#233, 1998).

The assay addresses Reverse transcriptase/RNaseH (Human immunodeficiency virus 1, UniProt Q72547). In words: Inhibitory concentration against HIV-1 reverse transcriptase.

The compound `CCc1c(Cc2ccccc2)[n]([Au])c(=O)[nH]c1=O` [6-Benzyl-5-ethyl-1-aurus-1H-pyrimidine-2,4-dione] displayed a concentration for a half-maximal effect (EC50) of 210 nM. As for `CC(C)c1c(Cc2ccccc2)[n]([Au])c(=O)[nH]c1=O` [6-Benzyl-5-isopropyl-1-aurus-1H-pyrimidine-2,4-dione], the figure is 42 nM.
